Results from patent publication US6780863B1, “Bis-basic compounds with tryptase-inhibitory activity” (Boehringer Ingelheim Pharma GmbH & Co. KG, priority 1999, dated 2004).

Molecular target: T1, rh beta tryptase (Homo sapiens, UniProt Q15661)
T1 construct: purchased Promega
Assay: tryptase inhibition test (cleavage of N-p-tosyl-Gly-Pro-Lys-para-nitroaniline, p-nitroaniline measured at 405 nm)
Type: biochemical
Settings: Tris HCl buffer pH 7.4 with calcium and heparin; substrate 0.6 mM; 5 min pre-incubation, 5 min incubation, 37° C.
Method: The compounds according to the invention are characterised by their tryptase-inhibiting activity. This ability to inhibit tryptase was investigated using the test described below.
The measurement is carried out in Tris HCl buffer (100 mM), which additionally contains calcium (5 mM) and heparin (100 mg/ml), at pH 7.4. The standard used is rh beta tryptase which may be obtained commercially from Promega, for example. The substrate used is N-p-tosyl—Gly-Pro-Lys-para-nitroaniline in a concentration of 0.6 mM. The substrate is digested with tryptase to form p-nitroaniline which can be measured at 405 nm. Usually, an incubation period of 5 minutes and an incubation temperature of 37° C. are chosen. The enzyme activity used is 0.91 U/ml. The measurements are carried out in an Autoanalyser (Cobas Bio) made by Hofmann LaRoche. The potential inhibitory substances are used in concentrations of 10 μM in the screening, the inhibition of the tryptase being given in percent. The IC50 (concentration at which 50% of the enzyme activity is inhibited) is determined at over 70% inhibition. After 5 minutes' pre-incubation of the potential inhibitory substances, the substrate is added to start the reaction, the formation of p-nitroaniline being taken as a measurement of the enzyme activity after 5 minutes, after testing the linearity.

T1 sequence (Q15661 31-275): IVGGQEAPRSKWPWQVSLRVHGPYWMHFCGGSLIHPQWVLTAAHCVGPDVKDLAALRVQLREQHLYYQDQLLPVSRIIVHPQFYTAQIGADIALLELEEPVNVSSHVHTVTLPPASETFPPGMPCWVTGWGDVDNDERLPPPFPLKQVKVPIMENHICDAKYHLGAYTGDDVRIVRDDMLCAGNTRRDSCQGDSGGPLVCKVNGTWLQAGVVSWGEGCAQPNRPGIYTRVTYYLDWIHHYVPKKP

## NCc1ccc(OCc2cccc(CNCCCCCNCc3cccc(COc4ccc(CN)cc4)c3)c2)cc1 [Example 7]
  IC50: 4.3 nM

## NCc1ccc(OCc2cccc(CNCCc3cccc(NCc4cccc(COc5ccc(CN)cc5)c4)c3)c2)cc1 [Example 10]
  IC50: 35 nM

## NCc1ccc(OCc2cccc(CNCC3CCC(CNCc4cccc(COc5ccc(CN)cc5)c4)CC3)c2)cc1 (centres unmarked) [Example 11]
  IC50: 4 nM

## CC(C)(CCC(C)(C)NCc1cccc(COc2ccc(CN)cc2)c1)NCc1cccc(COc2ccc(CN)cc2)c1 [Example 14]
  IC50: 13 nM

## NCc1ccc(OCc2cccc(CNCc3cccc(CNCc4cccc(COc5ccc(CN)cc5)c4)c3)c2)cc1 [Example 15]
  IC50: 23 nM

## NCc1ccc(OCc2cccc(CNCc3ccc(CNCc4cccc(COc5ccc(CN)cc5)c4)cc3)c2)cc1 [Example 16]
  IC50: 12 nM

## N=C(N)c1ccc(OCc2cccc(CNCCCCCNCc3cccc(COc4ccc(C(=N)N)cc4)c3)c2)cc1 [Example 17]
  IC50: 1.4 nM

## CC1(NCc2cccc(COc3ccc(CN)cc3)c2)CCC(C(C)(C)NCc2cccc(COc3ccc(CN)cc3)c2)CC1 (centres unmarked) [Example 18]
  IC50: 10.7 nM

## NCc1ccc(OCc2cccc(CNC3CCC(CC4CCC(NCc5cccc(COc6ccc(CN)cc6)c5)CC4)CC3)c2)cc1 (centres unmarked) [Example 19]
  IC50: 10 nM

## NCc1ccc(OCc2cccc(CNCC3CCCC(CNCc4cccc(COc5ccc(CN)cc5)c4)C3)c2)cc1 (centres unmarked) [Example 20]
  IC50: 7.1 nM

## N=C(N)c1ccc(OCc2cccc(CNCCCCCCCNCc3cccc(COc4ccc(C(=N)N)cc4)c3)c2)cc1 [Example 23]
  IC50: 1.1 nM

## CN(CCCCCCN(C)Cc1cccc(COc2ccc(C(=N)N)cc2)c1)Cc1cccc(COc2ccc(C(=N)N)cc2)c1 [Example 24]
  IC50: 3.1 nM

## N=C(N)c1ccc(OCc2cccc(CNCCCCCCNCc3cccc(COc4ccc(C(=N)N)cc4)c3)c2)cc1 [Example 25]
  IC50: 1.2 nM

## N=C(N)c1ccc(OCc2cccc(CNCC3CCC(CNCc4cccc(COc5ccc(C(=N)N)cc5)c4)CC3)c2)cc1 (centres unmarked) [Example 26]
  IC50: 0.8 nM

## CC(C)(CCC(C)(C)NCc1cccc(COc2ccc(C(=N)N)cc2)c1)NCc1cccc(COc2ccc(C(=N)N)cc2)c1 [Example 27]
  IC50: 1.7 nM

## N=C(N)c1ccc(OCc2cccc(CNCc3cccc(CNCc4cccc(COc5ccc(C(=N)N)cc5)c4)c3)c2)cc1 [Example 28]
  IC50: 5.3 nM

## N=C(N)c1ccc(OCc2cccc(CNCc3ccc(CNCc4cccc(COc5ccc(C(=N)N)cc5)c4)cc3)c2)cc1 [Example 29]
  IC50: 1.7 nM

## CCCCN(CCCCCCN(CCCC)Cc1cccc(COc2ccc(C(=N)N)cc2)c1)Cc1cccc(COc2ccc(C(=N)N)cc2)c1 [Example 30]
  IC50: 6.8 nM

## CN(CCCCCCN(C)Cc1cccc(COc2ccc(CN)cc2)c1)Cc1cccc(COc2ccc(CN)cc2)c1 [Example 31]
  IC50: 13 nM

## N=C(N)c1ccc(OCc2cccc(CNCCCCC(NCc3cccc(COc4ccc(C(=N)N)cc4)c3)C(=O)O)c2)cc1 (centres unmarked) [Example 32]
  IC50: 32.4 nM

## CC(C)(CCCCC(C)(C)NCc1cccc(COc2ccc(C(=N)N)cc2)c1)NCc1cccc(COc2ccc(C(=N)N)cc2)c1 [Example 33]
  IC50: 2.5 nM

## N=C(N)c1ccc(OCc2cccc(CN3CCC(C4CCN(Cc5cccc(COc6ccc(C(=N)N)cc6)c5)CC4)CC3)c2)cc1 [Example 34]
  IC50: 0.8 nM

## CN(Cc1ccc(CN(C)Cc2cccc(COc3ccc(CCN)cc3)c2)cc1)Cc1cccc(COc2ccc(CCN)cc2)c1 [Example 35]
  IC50: 31.6 nM

## N=C(N)c1ccc(OCc2cccc(CNCCOCCNCc3cccc(COc4ccc(C(=N)N)cc4)c3)c2)cc1 [Example 39]
  IC50: 12 nM

## CC1(NCc2cccc(COc3ccc(C(=N)N)cc3)c2)CCC(C(C)(C)NCc2cccc(COc3ccc(C(=N)N)cc3)c2)CC1 (centres unmarked) [Example 40]
  IC50: 5 nM

## NCCc1ccc(OCc2cccc(CN3CCC(C4CCN(Cc5cccc(COc6ccc(CCN)cc6)c5)CC4)CC3)c2)cc1 [Example 42]
  IC50: 30.9 nM

## N=C(N)c1ccc(OCc2cccc(COCc3ccc(COCc4cccc(COc5ccc(C(=N)N)cc5)c4)cc3)c2)cc1 [Example 56]
  IC50: 19 nM

## N=C(N)c1ccc(OCc2cccc(CN(Cc3ccc(CN(Cc4cccc(COc5ccc(C(=N)N)cc5)c4)C4CC4)cc3)C3CC3)c2)cc1 [Example 62]
  IC50: 41 nM

## N=C(N)c1ccc(OCc2ccc(CNCCCCCCNCc3ccc(COc4ccc(C(=N)N)cc4)cc3)cc2)cc1 [Example 63]
  IC50: 0.74 nM

## N=C(N)c1ccc(OCc2ccc(CN3CCC(C4CCN(Cc5ccc(COc6ccc(C(=N)N)cc6)cc5)CC4)CC3)cc2)cc1 [Example 64]
  IC50: 1.1 nM

## N=C(N)c1ccc(OCc2ccc(CNCc3ccc(CNCc4ccc(COc5ccc(C(=N)N)cc5)cc4)cc3)cc2)cc1 [Example 65]
  IC50: 0.59 nM

## NCc1ccc(OCc2cccc(CN3CCC(C4CCN(Cc5cccc(COc6ccc(CN)cc6)c5)CC4)CC3)c2)cc1 [Example 68]
  IC50: 2.5 nM
